Where two headings read alike, the source gives them in different places. Each block holds one molecule with its values, some of them ahead of it.
How the values were obtained:
[1] = target: human farnesyltransferase (hFTase) (Homo sapiens, UniProt P49354+P49356); assay: In vitro hFTase inhibition: incorporation of [3H]FPP into recombinant H-Ras-CVLS; type: biochemical; settings: for selectivity (ratio of GGTase-I to FTase IC50s): GGTase-I IC50 / hFTase IC50; for fold improvement in hFTase inhibitory activity relative to 1az: relative to parent 1az
[2] = test system: farnesylation of H-Ras in oncogenic H-Ras-transformed NIH3T3 cells; assay: Whole cell inhibition of farnesylation; type: cell-based; settings: Mus musculus

Compound: Cn1cnc(S(=O)(=O)N(CCN(Cc2cncn2C)c2ccc(C#N)cc2)Cc2ccncc2)c1 [1af]
selectivity (ratio of GGTase-I to FTase IC50s) [1]: >139

Compound: Cn1cnc(S(=O)(=O)N(CCN(Cc2cncn2C)c2ccc(C#N)cc2)Cc2ccsc2)c1 [1ai, [N-(Thiophen-3-ylmethyl), N-{2-[(4-Cyanophenyl)-(3-methyl-3H-imidazol-4-ylmethyl)-amino]-ethyl}] 1-Methyl-1H-imidazole-4-sulfonamide]
times as potent against hFTase as isomeric 1ak ([1]; relative to 1ak): more than 34 times

Compound: Cc1c(CN(CCN(Cc2cncn2C)c2ccc(C#N)cc2)S(=O)(=O)c2cn(C)cn2)cnn1C [1an, [N-(1,3,5-Trimethyl-1H-pyrazol-4-ylmethyl), N-{2-[(4-Cyanophenyl)-(3-methyl-3H-imidazol-4-ylmethyl)-amino]-ethyl}] 1-Methyl-1H-imidazole-4-sulfonamide]
selectivity (ratio of GGTase-I to FTase IC50s) [1]: >1.9

Compound: Cn1cnc(S(=O)(=O)N(CCN(Cc2cncn2C)c2ccc(C#N)cc2)Cc2ccc(-n3cccc3)cc2)c1 [1av]
fold improvement of in vitro hFTase inhibition relative to 1au ([1]; relative to 1au): approximately 4 fold

Compound: Cn1cnc(S(=O)(=O)N(CCN(Cc2cncn2C)c2ccc(C#N)cc2)CC2CCCCC2)c1 [1ax]
IC50 ([2]; NIH3T3, read-out: processing IC50 (μM) H-Ras): 0.1 ± 0.07 µM
IC50 ([2]; NIH3T3, read-out: whole cell H-Ras processing IC50): ~0.09 µM
GGTase-I/FTase selectivity ([1]; selectivity for hFTase over GGTase-I): about 9 fold

Compound: Cn1cnc(S(=O)(=O)N(CCN(Cc2cncn2C)c2ccc(C#N)cc2)CC2CCN(C(=O)OC(C)(C)C)CC2)c1 [1ay]
fold drop in hFTase inhibition relative to 1ax ([1]; relative to 1ax): > 60 fold

Compound: Cn1cnc(S(=O)(=O)N(CCN(Cc2cncn2C)c2ccc(C#N)cc2)CC2CCN(c3ncccn3)CC2)c1 [1az]
fold recovery of hFTase activity relative to 1ay ([1]; relative to 1ay): more than 7 fold

Further lines, results first:

selectivity (ratio of GGTase-I to FTase IC50s) [1]: >18
Compound: Cn1cnc(S(=O)(=O)N(CCN(Cc2cncn2C)c2ccc(C#N)cc2Cl)CC2CCN(c3ncccn3)CC2)c1 [19a, [N-{2-[(2-Chloro-4-cyanophenyl)-(3-methyl-3H-imidazol-4-ylmethyl)-amino]-ethyl}, N-{N-(2-Pyrimidinyl)-piperidin-4-ylmethyl}] 1-Methyl-1H-imidazole-4-sulfonamide]

selectivity (ratio of GGTase-I to FTase IC50s) [1]: >19
Compound: Cn1cnc(S(=O)(=O)N(CCN(Cc2cncn2C)c2ccc(C#N)nc2)CC2CCN(c3ncccn3)CC2)c1 [19b, N-(2-((2-Cyanopyridin-5-yl)((1-methyl-1H-imidazol-5-yl)methyl)-amino)ethyl)-1-methyl-N-((1-(pyrimidin-2-yl)piperidin-4-yl)methyl)-1H-imidazole-4-sulfonamide]

fold improvement in hFTase inhibitory activity relative to 1az [1]: 2 fold
Compound: Cn1cnc(S(=O)(=O)N(CCN(Cc2cncn2C)c2ccc(C#N)c(F)c2)CC2CCN(c3ncccn3)CC2)c1 [19e, [N-{2-[(3-Fluoro-4-cyanophenyl)-(3-methyl-3H-imidazol-4-ylmethyl)-amino]-ethyl}, N-{N-(2-Pyrimidinyl)-piperidin-4-ylmethyl}] 1-Methyl-1H-imidazole-4-sulfonamide]

fold improvement in hFTase inhibitory activity relative to 1az [1]: approximately 8 fold
Compound: Cn1cnc(S(=O)(=O)N(CCN(Cc2cncn2C)c2ccc(C#N)cc2F)CC2CCN(c3ncccn3)CC2)c1 [19f, [N-{2-[(2-Fluoro-4-cyanophenyl)-(3-methyl-3H-imidazol-4-ylmethyl)-amino]-ethyl}, N-{N-(2-Pyrimidinyl)-piperidin-4-ylmethyl}] 1-Methyl-1H-imidazole-4-sulfonamide]

fold drop in hFTase inhibitory activity relative to 1a ([1]; relative to 1a): > 7 fold
Compound: Cn1cnc(S(=O)(=O)N(CCCN(Cc2cncn2C)c2ccc(C#N)cc2)Cc2ccccc2)c1 [20a]
